We go through ten compounds from patent publication US20150272970A1, “TARGETING CHEMOTHERAPY AGENT RESISTANCE IN CANCER” (priority 2012, published 2015).

Assay [1] deals with DU145-pCK19-GFP and 22Rv1-pCK19-GFP sorted cells. Nature of the assay: Colony formation assay of GFP-sorted cells. The note with it: 72 hours; for colony formation of CK19/GFP-negative cells with PI3K/AKT and Bcl-2 inhibition: LY294002 50 μM, ABT-737 10 μM; for colony formation of CK19/GFP-negative cells / colony formation of CK19/GFP-positive cells: Mitoxantrone 125/500 nM, Cisplatin 5/2.5 μM, Vinorelbine 500/750 nM (DU145/22Rv1). The format is cell-based, human. As to the method: (§1) Cells were exposed to vehicle solution (Control), LY294002 (50 μM), and ABT-737 (10 μM) for 72 hours, alone or in combination.

The test system of assay [2] is CK19/GFP-negative cells. Nature of the assay: Apoptotic response by Caspase-3 and PARP cleavage immunoblot. The format is cell-based, human. Particulars: LY294002 50 μM, ABT-737 10 μM, 72 hours. As to the method: (§2) Whole cell extracts were prepared in sample buffer and analyzed by immunoblotting. Primary antibodies against poly (ADP-ribose) polymerase (PARP) (BD Pharmingen), cleaved caspase-3 (Cell Signaling), cytokeratin 19 (CK19) (Abcam), cytokeratin 18 (CK18) (Abcam), androgen receptor (AR) (Sigma-Aldrich), prostate specific membrane antigen (PSMA) (Abcam), prostate specific antigen (PSA) (Epitomics), cytokeratin 5 (CK5) (Covance), cytokeratin 14 (CK14) (Biogenex), p63 (Santa Cruz), CD44 (Neomarkers), activated Notch2 (Abcam), Hes1 (Abcam), Patched (Abcam), Gli1 (Santa Cruz), Gli2 (Abcam), pan-HLA class I (Abcam), and AKT (Cell Signaling), phospho-AKT Ser 473 (Cell Signaling), Bcl-2 (Cell Signaling), ABCB1/P-Glycoprotein (Calbiochem), Green fluorescent protein (Santa Cruz), and β-Actin (Sigma-Aldrich) were used in immunoblot assays using standard procedures. Protein expression was quantified by comparing band expression using Quantity One software (Bio-Rad).
as §1
(A western blot detects proteins with antibodies after separation by electrophoresis.)

The subject of assay [3] is Notch and Hedgehog pathway target genes. Nature of the assay: Quantitative RT-PCR of Notch and Hedgehog pathway target genes in cells. The note with it: 1 μM, 72 hours, DU145-pCK19-GFP and 22Rv1-pCK19-GFP cells. The assay is classed as cell-based, human. As to the method: Total RNA was isolated using the RNeasy Mini kit according to the manufacturer's instructions (Qiagen). Complementary DNA was synthesized from equivalent concentrations of total RNA using the SuperScript III First-Strand Synthesis SuperMix Kit (Invitrogen) according to the manufacturer's instructions. Coding sequences for genes of interest and β-Actin as an internal control were amplified from 500 ng of complementary DNA using the QuantiTect SYBR Green PCR Kit (Qiagen).
Amplification was carried out using a Stratagene mx3005p (Agilent Technologies). Cycle threshold (Ct) values were determined and normalized to the housekeeping gene (β-actin) for each experiment. Fold changes for experimental groups relative to respective controls were calculated using MX Pro software (Agilent Technologies). Quantitative RT-PCR was performed in DU145-pCK19-GFP and 22Rv1-pCK19-GFP cells as well as in cells obtained from mice bearing DU145 and 22Rv1 tumor xenografts treated for 21 days with Docetaxel, and Hedgehog and Notch inhibitors, alone or in combination. Quantitative RT-PCR was performed in tumor xenografts removed 4 hours after the last drug dose was administered.

Assay [4] relates to p-AKT (Ser473). Nature of the assay: Immunoblot of AKT phosphorylation. The assay is classed as cell-based, human. Particulars: 1 μM, 72 hours, CK19/GFP-negative cells. As to the method:
as §2

Assay [5] concerns Bcl-2. The assay can be described thus: Immunoblot of Bcl-2 expression. The assay is classed as cell-based, human. Particulars: 1 μM, 72 hours, CK19/GFP-negative cells. As to the method: Whole cell extracts were prepared in sample buffer and analyzed by immunoblotting. […] Protein expression was quantified by comparing band expression using Quantity One software (Bio-Rad).
Assay [6] deals with DU145-pCK19-GFP cells. The assay can be described thus: Flow cytometry of viable CK19/GFP populations after Docetaxel. The assay is classed as cell-based, human. The note with it: 10 nM Docetaxel for 72 h.
Procedure: (§3) Flow cytometry analysis of subpopulations of prostate cancer cells were carried out following standard procedures. Intracellular CK19 and CK18 expression analysis was performed in single-cell suspensions fixed with 70% ethanol, whereas the expression of cell surface HLA class I was determined in fresh cell samples (without fixation). Primary antibodies against CK19 (Abcam), CK18 (Abcam), HLA class I (Abcam), HLA class I conjugated to phycoerythrin (Abcam), and GFP (Abcam) were used. […] Samples were acquired with a FACscan Flow Cytometer (BD Biosciences) and analyzed with CellQuest Pro software (BD Biosciences). A minimum of 10,000 cells were measured per sample.
For assay [7], the system named is 22Rv1-pCK19-GFP cells. The description is as above. The assay is classed as cell-based, human. The note with it: 50 nM Docetaxel.
Procedure: as §3
Assay [8] concerns DU145 and 22Rv1 xenografts. Nature of the assay: Percentage of CK-negative cells in tumor xenografts. The format is in vivo, NOD/SCID mice. The note with it: treated for 4 weeks.
Procedure: Immunofluorescence analyses were conducted on prostate cancer cell lines and formalin fixed paraffin-embedded tissue sections from normal human prostate, human cancers, and tumor xenografts. Primary antibodies included a combination of cytokeratin 19 and 18 (Abcam), green fluorescence protein (Abcam), cytokeratin 5 (Covance), cytokeratin 14 (Biogenex), p63 (Santa Cruz), pan-HLA class I (Abcam), Ki67 (Abcam) and the following transcription factors: activated Notch2 (Abcam), Gli1 (Santa Cruz), Gli2 (Abcam) and androgen receptor (DAKO). […] Prostate cancer cells (10,000) were plated in 35 mm culture dishes and 24 hours later stained by standard immunofluorescence procedures. Tissue sections (5 μm) were deparaffinized and submitted to standard peroxidase based immunohistochemistry and immunofluorescence procedures. Quantification of the expression of cytokeratins, HLA class I antigens, transcription factors, and androgen receptor was performed by evaluating tumor cells. Percentage of positive and negative cells was determined by counting the number of tumor cells in 10 contiguous high power fields in three different areas of the tumor, and referred to the total number of counted cancer cells.
Assay [9] has as its system DU145-pCK19-GFP and 22Rv1-pCK19-GFP cells. Nature of the assay: Live cell imaging (time-lapse) in presence of Docetaxel. The format is cell-based, human. The note with it: in the presence of Docetaxel. As to the method: Time-lapse videomicroscopy was used to assess Docetaxel sensitivity of DU145-pCK19-GFP and 22Rv1-pCK19-GFP cells. Cells growing in 6-well plates at low confluence were placed in the stage inside an incubator chamber at 37° C., 50% humidity, and in an atmosphere of 5% CO2. Unattended time-lapse movies of randomly chosen GFP+ and GFP− DU145 and 22Rv1 cells were performed with a Nikon Eclipse Ti inverted microscope. NIS Elements AR (Nikon) software was used to collect and process data. Imaging was performed using a 10× objective, and images were captured using 200-ms exposure times for GFP and 20-ms exposure times for bright field every 30 min.

For assay [10] the test system is unchanged. The assay can be described thus: Immunoblots of Docetaxel-resistance markers in unsorted cells. Particulars: Docetaxel 72 hours (10 nM DU145, 50 nM 22Rv1). The format is cell-based, human. As to the method: as §2

“Also recorded” adds a separate entry of the source.

With `CN(C)CC[C@H](CSc1ccccc1)Nc1ccc(S(=O)(=O)NC(=O)c2ccc(N3CCN(Cc4ccccc4-c4ccc(Cl)cc4)CC3)cc2)cc1[N+](=O)[O-]` [ABT-737], in [1], the “colony formation of CK19/GFP-negative cells with PI3K/AKT and Bcl-2 inhibition” value is listed as “not individual”. Moreover, the “apoptosis (PARP and Caspase-3 cleavage) with PI3K/AKT and Bcl-2 inhibition” value in assay [2] is given as “not individual”.
With `N.N.[Cl][Pt][Cl]` [Cisplatin], in assay [1], the “colony formation of CK19/GFP-negative cells” value was “formed colonies” and the “colony formation of CK19/GFP-positive cells” value is “failed to do so”.
Consider `C[C@H](NC(=O)Cc1cc(F)cc(F)c1)C(=O)NC1C(=O)N(C)c2ccccc2-c2ccccc21` (stereo partly drawn) [DBZ, (2S)-2-[2-(3,5-difluorophenyl)-acetylamino]-N-(5-methyl-6-oxo-6,7-dihydro-5H-dibenzo[b,-d]azepin-7-yl)-propionamide], for which the “targeting of respective pathway (mRNA of pathway target genes)” value (“targeting of respective pathway” for short) in assay [3] is listed as “targeting their respective pathways”. Also, in assay [4], the “p-AKT (Ser473) level” value is “significantly reduced; also recorded: decreases”.
For `CC1=C2C[C@H]3[C@@H](CC=C4C[C@@H](O)CC[C@@]43C)[C@@H]2CC[C@]12O[C@@H]1C[C@H](C)CN[C@H]1[C@H]2C` [Cyclopamine], in [3], the “targeting of respective pathway” value is listed as “targeting their respective pathways”. For the same compound, in assay [5], the Bcl-2 expression level result is on record as “significantly reduced; also recorded: reduces”.
As for `C[C@H](NC(=O)Cc1cc(F)cc(F)c1)C(=O)N[C@H]1N=C(c2ccccc2)c2ccccc2N(C)C1=O` [Compound E], the “targeting of respective pathway” value in [3] is given as “targeting their respective pathways”. Besides, the “p-AKT (Ser473) level” value in [4] (listed as CE) is given as “significantly reduced; also recorded: specifically decreases”.
For `CCC1=C[C@@H]2CN(C1)Cc1c([nH]c3ccccc13)[C@@](C(=O)OC)(c1cc3c(cc1OC)N(C)[C@H]1[C@@](O)(C(=O)OC)[C@H](OC(C)=O)[C@]4(CC)C=CCN5CC[C@]31[C@@H]54)C2` [Vinorelbine], in [1], the “colony formation of CK19/GFP-negative cells” value was “formed colonies” and the “colony formation of CK19/GFP-positive cells” value was “failed to do so”.
With `O=C1c2c(O)ccc(O)c2C(=O)c2c(NCCNCCO)ccc(NCCNCCO)c21` [Mitoxantrone], in assay [1], the “colony formation of CK19/GFP-negative cells” value is “formed colonies” and the “colony formation of CK19/GFP-positive cells” value was “failed to do so”.
With `Cl.O=c1cc(N2CCOCC2)oc2c(-c3ccccc3)cccc12` [LY294002, 2-(4-Morpholinyl)-8-phenyl-1(4H)-benzopyran-4-one hydrochloride], the “colony formation of CK19/GFP-negative cells with PI3K/AKT and Bcl-2 inhibition” value in [1] is reported as “not individual”. In addition, in [2], the “apoptosis (PARP and Caspase-3 cleavage) with PI3K/AKT and Bcl-2 inhibition” value is given as “not individual”.
`CC(=O)O[C@@]12CO[C@@H]1C[C@H](O)[C@@]1(C)C(=O)[C@H](O)C3=C(C)[C@@H](OC(=O)[C@H](O)[C@@H](NC(=O)OC(C)(C)C)c4ccccc4)C[C@@](O)([C@@H](OC(=O)c4ccccc4)[C@H]21)C3(C)C` [Docetaxel]: the “viable CK19/GFP-negative population” value in assay [6] (4.4±4.3% before treatment) is given as 73.1±10.2%. In addition, the “viable CK19/GFP-positive population” value in [6] (87.5±10.4% before treatment) was found to be 28.3±10.6%. The “viable 22Rv1-pCK19-GFP-negative cells” value in assay [7] (8.5±3.5% before treatment) is 78.6±4.1%. In addition, in assay [7] (85.0±2.0% before treatment), the “viable CK19/GFP-positive cells” value turned out to be 19.3±3.4%. Besides, in [1] (Docetaxel 10 nM (DU145) and 50 nM (22Rv1)), the “colony formation after exposure to Docetaxel” value is “only CK19/GFP-negative cells formed colonies”. For the same compound, the “CK-negative cells in xenografts” value in [8] is given as “enriched for CK-negative cells”. For the same compound, in [9], the “behavior of CK19/GFP-negative cells under therapy” value was “able to divide and exit mitosis”; the “behavior of CK19/GFP-positive cells under therapy” value was “died after mitotic arrest”. For the same compound, in [10], the “differentiation markers and developmental signaling pathways” value is “expected reduction in differentiation markers and increase in developmental signaling pathways”.
Regarding `CS(=O)(=O)c1ccc(C(=O)Nc2ccc(Cl)c(-c3ccccn3)c2)c(Cl)c1` [GDC-0449, Vismodegib], the “targeting of respective pathway” value in assay [3] is listed as “targeting their respective pathways”. In addition, the Bcl-2 expression level result in assay [5] is recorded as “significantly reduced; also recorded: reduces”.
